# Laboratory results published in patent US12098139B2, “Chemokine receptor modulators and uses thereof” (RAPT Therapeutics, Inc., priority 2018, dated 2024).
# Biological target: T1, hCCR4 (Chem5-hCCR4 cells) (Homo sapiens, UniProt P51679)
# T1 sequence (P51679 1-360): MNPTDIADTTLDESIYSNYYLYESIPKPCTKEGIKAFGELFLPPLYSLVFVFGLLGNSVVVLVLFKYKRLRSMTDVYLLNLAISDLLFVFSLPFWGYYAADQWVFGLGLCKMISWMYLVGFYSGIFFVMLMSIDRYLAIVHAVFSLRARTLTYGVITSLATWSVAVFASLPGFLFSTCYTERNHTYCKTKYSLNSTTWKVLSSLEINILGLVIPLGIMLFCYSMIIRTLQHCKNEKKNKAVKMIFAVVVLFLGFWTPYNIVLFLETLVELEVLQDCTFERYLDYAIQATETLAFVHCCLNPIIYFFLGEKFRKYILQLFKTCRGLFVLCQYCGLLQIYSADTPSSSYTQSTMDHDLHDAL
# Test: Calcium flux assay (CCL22-stimulated, FLIPR Calcium 6 dye)
# Assay type: cell-based
# Settings: Table 3, CCL22 1.5 nM, read-out: Potency (IC50)
# Procedure: Calcium Flux Assay. Compounds were evaluated in a calcium flux assay substantially performed as follows. Chem5-hCCR4 cells (EMD Millipore, Hayward, CA; HTS009C) were cultured under standard conditions and frozen in aliquots of 10×10^6 cells/mL. The day prior to compound testing, a vial was rapidly thawed and pipetted into 20 mL media (DMEM+10% FBS+1% Pen-Strep+1% L-glutamine). Cells were harvested by centrifugation and re-suspended in fresh culture medium. 25 μL of cell suspension was seeded into 384-well plates (Corning, Tewksbury, MA; CellBind with black wall/clear bottom). The plates were centrifuged at 300 g for 10 seconds and incubated overnight at 37° C. and 5% CO2. The day of compound testing, media was removed from the plates and 25 μL serum free media was added to each well. Plates were returned to the incubator for 2 h. 25 μL assay buffer (Hank's balanced salt solution+20 mM HEPES pH 7.4) containing FLIPR Calcium 6 dye (Molecular Devices, Sunnyvale, CA; #R8191) and probenecid (2.5 mM) was added to each well and incubated at 37° C. and 5% CO2 for 2 h. Compounds in DMSO were added to the plates using an HP D300e digital dispenser, and all wells were normalized to contain 0.25 μL (0.5%) DMSO. Plates were incubated for 1 hour at 37° C. and 5% CO2. CCL22 (Peprotech; Rockyhill, NJ) was diluted in assay buffer containing 0.1% BSA to 7.5 nM (corresponding to 5×EC80 of 1.5 nM).
# Assay plates and working solution of CCL22 were transferred to the FlexStation plate reader (Molecular Devices) at 37° C. for 5 min of equilibration. Fluorescence recordings at 485 excitation/525 emission were performed at 2.5 second intervals. At t=16 seconds, 12.5 μL of CCL22 solution was added to each well and reads continued for 30 seconds at 2.5 second intervals. The minimum fluorescence (Fmin) was calculated by averaging the reads prior to ligand addition and the change in fluorescence (ΔF) was calculated by subtracting the Fmin from the average of the reads following ligand addition. The response ΔF/Fmin was plotted as a function of the compound concentration and the IC50 values were determined by non-linear regression analysis using a 4-parameter fit in either PRISM software (GraphPad; La Jolla, CA) or Dotmatics Browser.
row,IC50,SMILES
1,< 0.1 µM,"Cc1nc(N2CC([C@H]3CCCN([C@H]4C[C@](C)(C(=O)O)C4)C3)C2)nc(N[C@H](C)c2ccc(Cl)cc2Cl)c1C [Example 22, (1R,3r)-3-((R)-3-(1-(4-(((R)-1-(2,4-dichlorophenyl)ethyl)amino)-5,6-dimethylpyrimidin-2-yl)azetidin-3-yl)piperidin-1-yl)-1-methylcyclobutane-1-carboxylic acid]"
2,< 0.1 µM,"C[C@@H](Nc1nc(N2CC([C@H]3CCCN([C@H]4C[C@](C)(C(=O)O)C4)C3)C2)ncc1Cl)c1ccc(Cl)cc1Cl [Example 12, (1R,3r)-3-((R)-3-(1-(5-chloro-4-(((R)-1-(2,4-dichlorophenyl)ethyl)amino)pyrimidin-2-yl)azetidin-3-yl)piperidin-1-yl)-1-methylcyclobutane-1-carboxylic acid]"

# The next lines start with the compound.
row,SMILES,IC50
1,"C[C@@H](Nc1nc(N2CC([C@H]3CCCN(CCO)C3)C2)ncc1C#N)c1ccc(Cl)cc1Cl [Example 14, 4-(((R)-1-(2,4-dichlorophenyl)ethyl)amino)-2-(3-((R)-1-(2-hydroxyethyl)piperidin-3-yl)azetidin-1-yl)pyrimidine-5-carbonitrile]",< 0.1 µM
2,"C[C@]1(C(=O)O)C[C@H](N2CCC[C@H](C3CN(c4ncc(Cl)c(NCc5ccc(Cl)cc5Cl)n4)C3)C2)C1 [Example 21, (1R,3r)-3-((R)-3-(1-(5-chloro-4-((2,4-dichlorobenzyl)amino)pyrimidin-2-yl)azetidin-3-yl)piperidin-1-yl)-1-methylcyclobutane-1-carboxylic acid]",> 0.5 µM
3,"Cc1cnc(N2CC([C@H]3CCCN([C@H]4C[C@@H](C(=O)O)C4)C3)C2)nc1N[C@H](C)c1ccc(Cl)cc1Cl [Example 17, (1S,3s)-3-((R)-3-(1-(4-(((R)-1-(2,4-dichlorophenyl)ethyl)amino)-5-methylpyrimidin-2-yl)azetidin-3-yl)piperidin-1-yl)cyclobutane-1-carboxylic acid]",< 0.1 µM

# Same assay, conditions: Table 4, CCL22 1.5 nM, read-out: Potency (IC50)
row,SMILES,IC50
1,"C[C@@H](Nc1cnc(C#N)c(N2CC([C@H]3CCCN(C4CC(C)(C(=O)O)C4)C3)C2)n1)c1ccc(Cl)cc1Cl (single isomer, unassigned) [Example 52]",> 0.5 µM

# Same assay, conditions: Table 5, CCL22 1.5 nM, read-out: Potency (IC50)
row,IC50,SMILES
1,< 0.1 µM,"CC(O)c1cnc(N2CC([C@H]3CCCN([C@H]4C[C@](C)(C(=O)O)C4)C3)C2)nc1N[C@H](C)c1ccc(Cl)cc1Cl (stereo partly drawn) [Example 58, 3-[(3R)-3-[1-[4-[[(1R)-1-(2,4-dichlorophenyl)ethyl]amino]-5-(1-hydroxyethyl)pyrimidin-2-yl]azetidin-3-yl]-1-piperidyl]-1-methyl-cyclobutanecarboxylic acid; 2,2,2-trifluoroacetic acid]"
2,< 0.1 µM,"C[C@@H](Nc1nc(N2CC([C@H]3CCCN([C@H]4C[C@](C)(C(=O)O)C4)C3)C2)ncc1C(O)C1CC1)c1ccc(Cl)cc1Cl (stereo partly drawn) [Example 70, 3-[(3R)-3-[1-[5-[cyclopropyl(hydroxy)methyl]-4-[[(1R)-1-(2,4-dichlorophenyl)ethyl]amino]pyrimidin-2-yl]azetidin-3-yl]-1-piperidyl]-1-methyl-cyclobutanecarboxylic acid; 2,2,2-trifluoroacetic acid]"

# Continued, compound first:
row,SMILES,IC50
1,"C[C@@H](Nc1nc(N2CC([C@H]3CCCN([C@H]4C[C@@H](C(=O)O)C4)C3)C2)ncc1C#N)c1ccc(Cl)cc1Cl [Example 93, 3-[(3R)-3-[1-[5-cyano-4-[[(1R)-1-(2,4-dichlorophenyl)ethyl]amino]pyrimidin-2-yl]azetidin-3-yl]-1-piperidyl]cyclobutanecarboxylic acid]",0.1 to 0.5 µM
2,"C[C@@H](Nc1nc(N2CC([C@H]3CCCN(C4CC(C)(C(=O)O)C4)C3)C2)nc2ccn(C)c12)c1ccc(Cl)cc1Cl (single isomer, unassigned) [Example 81, trifluoroacetic acid]",< 0.1 µM
